Measured values reported in publication PMC8279479, “Application of Alanine Scanning to Determination of Amino Acids Essential for Peptide Adsorption at the Solid/Solution Interface and Binding to the Receptor: Surface-Enhanced Raman/Infrared Spectroscopy versus Bioactivity Assays” (Journal of Medicinal Chemistry, 2021).
Where no end group is shown, it is not given here.

Key:
[1] = biological target: human BB1 receptor (Homo sapiens, UniProt P28336); assay: Intracellular inositol monophosphate (IP-One HTRF) assay, HEK-293 cells overexpressing BB1 receptor; assay type: cell-based; conditions: BB1R HEK-293
Sequence of human BB1 receptor (P28336 whole entry): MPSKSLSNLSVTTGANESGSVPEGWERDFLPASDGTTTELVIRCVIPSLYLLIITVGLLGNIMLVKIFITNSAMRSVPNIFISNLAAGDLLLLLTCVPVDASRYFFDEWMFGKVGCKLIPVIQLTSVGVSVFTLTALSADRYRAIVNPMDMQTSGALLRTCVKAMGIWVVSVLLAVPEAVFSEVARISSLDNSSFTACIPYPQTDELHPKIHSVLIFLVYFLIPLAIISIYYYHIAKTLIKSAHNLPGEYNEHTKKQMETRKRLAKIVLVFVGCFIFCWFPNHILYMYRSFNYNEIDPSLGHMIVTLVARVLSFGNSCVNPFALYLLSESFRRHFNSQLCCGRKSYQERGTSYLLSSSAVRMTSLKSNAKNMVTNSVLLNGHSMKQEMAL
Protocol: (§1) Additionally, reference compounds BIM23042 and PD176252 (both from Tocris) antagonists of BB1 and BB2 receptors were used in a concentration of 10 μM (Figure 7).
(§2) The human BB1 receptor NM_002511.3 (GenScript) and BB2 receptor NM_002091 (cDNA Resource Center) sequences in pcDNA 3.1 + plasmids were introduced into the host cell by lipofection (Lipofectamine Reagent 3000, Thermo Fisher Scientific). Then, the transfected cells were selected with G-418 antibiotic at a dose of 500 μg/mL. Cells were grown under standard cell culture conditions (37 °C, 5% CO2) in DMEM supplemented with 10% FBS and Glutamax.
(§3) Receptor activity was determined by measuring the intracellular inositol monophosphate concentration using a homogeneous time-resolved fluorescence IP-one kit from Cis-bio, according to the manual. Briefly, 24 h before assay, cells were grown in an FBS-free DMEM medium. Then, the cells were scraped and centrifuged. The cell pellet was suspended in Hanks-HEPES (130 mM NaCl, 5.4 mM KCl, 1.8 mM CaCl2, 0.8 mM MgSO4, 0.9 mM NaH2PO4, 20 mM HEPES, LiCl 50 mM, and 3.25 mM glucose; pH 7.4). […] The cell suspension was then mixed with 5 μL of the IP1-acceptor conjugate and 5 μL of the anti-IP1-donor conjugate. After 1 h incubation at RT, fluorescence was read at 620 and 665 nm (Tecan; Infinite M1000). Results were calculated as the ratio (665 nm/620 nm) multiplied by 10^4. The signal was inversely proportional to the concentration of IP1 in the samples. Each sample was prepared in triplicate. Data were analyzed using GraphPad Prism version 5.04 for Windows (GraphPad software).

[2] = biological target: human BB2 receptor (Homo sapiens, UniProt P30550); assay: Intracellular inositol monophosphate (IP-One HTRF) assay, HEK-293 cells overexpressing BB2 receptor; assay type: cell-based; conditions: BB2R HEK-293
Sequence of human BB2 receptor (P30550 whole entry): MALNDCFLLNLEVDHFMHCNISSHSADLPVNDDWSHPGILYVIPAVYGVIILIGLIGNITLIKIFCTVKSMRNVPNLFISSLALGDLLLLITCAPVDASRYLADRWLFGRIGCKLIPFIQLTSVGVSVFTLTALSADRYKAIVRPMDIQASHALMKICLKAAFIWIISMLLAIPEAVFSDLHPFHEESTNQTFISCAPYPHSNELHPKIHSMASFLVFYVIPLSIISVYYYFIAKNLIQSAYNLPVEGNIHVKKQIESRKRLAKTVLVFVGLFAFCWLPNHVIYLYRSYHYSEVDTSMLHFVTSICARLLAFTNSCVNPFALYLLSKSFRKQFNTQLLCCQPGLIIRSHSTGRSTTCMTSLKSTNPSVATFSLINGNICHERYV
Protocol: as §1, §2, §3

| Molecule | Effect of reference antagonist alone on basal receptor activity (IP1) ([1]; reference compound 10 μM alone (Figure 7A)) | Effect of reference antagonist on IP1 concentration in the presence of agonist ([1]; reference compound 10 μM with BN 150 nM (Figure 7A)) | Effect of reference antagonist alone on basal receptor activity (IP1) ([2]; reference compound 10 μM alone (Figure 7B)) | Effect of reference antagonist on IP1 concentration in the presence of agonist ([2]; reference compound 10 μM with BN 150 nM (Figure 7B)) | Agonist effect of compound alone on intracellular IP1 ([1]; compound alone 25 μM, 1 h, 37 °C (Figure 7A)) | Agonist effect of compound alone on intracellular IP1 ([2]; compound alone 25 μM, 1 h, 37 °C (Figure 7B)) |
| --- | --- | --- | --- | --- | --- | --- |
| COc1ccc(C2(CNC(=O)[C@](C)(Cc3c[nH]c4ccccc34)NC(=O)Nc3ccc([N+](=O)[O-])cc3)CCCCC2)nc1 [PD176252] | inhibited the basal activity | downregulated IP1 concentration to control level | inhibited the basal activity | significantly reduced its level | – | – |
| Asn-Gln-Ala-Ala-Val-Gly-His-Leu-Met-NH2 (NQAAVGHLM-NH2) [[Ala^3]BN^6–14] | – | – | – | – | little change in the activity | little change in the activity |
